Measurements as given in US11584747B2, “Substituted pyridopyrimidinonyl compounds useful as T cell activators” (BRISTOL-MYERS SQUIBB COMPANY, priority 2019, dated 2023).
Read-outs that look alike come from different tables or passages of the source.

Columns and labels:
human DGKζ = human DGKζ (Homo sapiens (Human), UniProt Q13574); assay: DGKζ LIPGLO assay (extruded liposome substrate, ADP-Glo luminescence); type: biochemical
human DGKα = human DGKα (Homo sapiens (Human), UniProt P23743); assay: DGKα ADPGLO assay (detergent/lipid micelle substrate); type: biochemical
Chain of human DGKα (P23743 whole entry, looked up, the tested form may be a part): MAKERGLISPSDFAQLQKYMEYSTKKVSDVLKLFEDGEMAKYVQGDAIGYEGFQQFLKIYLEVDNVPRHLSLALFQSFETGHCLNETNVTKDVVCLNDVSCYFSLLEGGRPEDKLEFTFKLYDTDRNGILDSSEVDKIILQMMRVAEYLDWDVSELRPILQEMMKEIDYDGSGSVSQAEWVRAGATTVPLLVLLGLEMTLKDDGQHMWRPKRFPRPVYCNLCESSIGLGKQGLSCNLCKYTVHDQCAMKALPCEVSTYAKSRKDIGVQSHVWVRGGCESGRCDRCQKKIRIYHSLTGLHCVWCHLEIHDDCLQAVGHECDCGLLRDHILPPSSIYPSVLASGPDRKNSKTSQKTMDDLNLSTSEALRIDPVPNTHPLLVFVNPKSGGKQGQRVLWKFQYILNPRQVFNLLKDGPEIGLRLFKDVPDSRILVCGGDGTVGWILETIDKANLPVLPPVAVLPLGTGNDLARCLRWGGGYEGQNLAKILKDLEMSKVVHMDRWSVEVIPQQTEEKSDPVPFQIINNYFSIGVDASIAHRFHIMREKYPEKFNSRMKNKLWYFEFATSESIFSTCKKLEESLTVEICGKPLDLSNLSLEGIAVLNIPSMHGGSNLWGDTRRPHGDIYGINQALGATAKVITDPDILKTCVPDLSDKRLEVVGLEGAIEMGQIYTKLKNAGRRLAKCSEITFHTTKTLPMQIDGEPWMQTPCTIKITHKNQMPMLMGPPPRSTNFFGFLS
Method: DGK Alpha ADPGLO (Truncated) IC50 (uM)
The detergent/lipid micelle was prepared by combining 15 g phosphatidylserine (Avanti 840035P) and 1 g diacylglycerol (8008110) and dissolving into 150 mL chloroform in a 2 L round bottom flask. Chloroform was removed under high vacuum by rotary evaporation. […] The lipid/detergent solution was split into 5 mL aliquots and stored at −80° C.

[1] = test system: human venous whole blood (IFN-γ); assay: Human whole blood IFN-γ assay; type: cell-based
Method: Human venous whole blood (22.5 μL per well), obtained from healthy donors, was pre-treated with compounds for one hour at 37° C. in a humidified 95% air/5% CO2 incubator. The blood was stimulated with 2.5 μL anti-human CD3 and anti-CD28 mAb at a final concentration of 1 μg/mL each for 24 hours at 37° C. IFN-γ in the supernatants was measured using AlphLISA kit (Cat #AL217).

[2] = liposome assay, read-out: DGK zeta LIPGLO IC50
[3] = truncated DGK alpha, read-out: DGK alpha ADPGLO (Truncated) IC50
[4] = whole blood, normalized to 3 μM reference compound as 100% activation, read-out: IFN-γ Whole Blood Normalized EC50
[5] = Homo sapiens, whole blood, normalized to 3 μM reference compound as 100% activation, read-out: IFN-γ Whole Blood Normalized EC50
[6] = liposome (LIPGLO) assay, read-out: DGK zeta (liposome assay) IC50
[7] = ADPGLO assay, read-out: DGK alpha ADPGLO IC50

Chain of human DGKζ (Q13574 other isoform, or with tags, fused parts or gaps): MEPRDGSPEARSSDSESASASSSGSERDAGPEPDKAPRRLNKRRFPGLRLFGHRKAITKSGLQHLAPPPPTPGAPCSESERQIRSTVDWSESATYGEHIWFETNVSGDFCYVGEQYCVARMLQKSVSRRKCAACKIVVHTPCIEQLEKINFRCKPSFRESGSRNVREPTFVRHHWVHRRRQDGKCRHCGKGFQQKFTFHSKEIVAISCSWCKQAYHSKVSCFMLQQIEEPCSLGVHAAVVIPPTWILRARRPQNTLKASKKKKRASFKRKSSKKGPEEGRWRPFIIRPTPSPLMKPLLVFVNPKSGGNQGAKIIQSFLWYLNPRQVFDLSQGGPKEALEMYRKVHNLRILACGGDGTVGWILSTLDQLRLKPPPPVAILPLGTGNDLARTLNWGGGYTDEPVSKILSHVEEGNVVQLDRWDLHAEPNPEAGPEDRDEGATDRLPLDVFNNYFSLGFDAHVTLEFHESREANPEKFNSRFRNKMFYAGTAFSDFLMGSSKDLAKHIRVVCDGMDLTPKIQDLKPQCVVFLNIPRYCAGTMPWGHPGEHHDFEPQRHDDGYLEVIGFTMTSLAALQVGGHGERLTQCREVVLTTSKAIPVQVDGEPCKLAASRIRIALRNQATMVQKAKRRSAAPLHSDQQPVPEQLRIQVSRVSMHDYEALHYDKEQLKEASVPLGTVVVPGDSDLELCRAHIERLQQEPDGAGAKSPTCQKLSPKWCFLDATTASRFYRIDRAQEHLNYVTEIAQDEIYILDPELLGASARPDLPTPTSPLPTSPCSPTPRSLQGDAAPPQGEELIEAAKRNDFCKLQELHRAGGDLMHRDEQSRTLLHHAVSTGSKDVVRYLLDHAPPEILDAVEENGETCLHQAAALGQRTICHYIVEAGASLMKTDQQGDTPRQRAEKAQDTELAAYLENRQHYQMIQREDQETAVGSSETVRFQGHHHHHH

SMILES | IC50 (human DGKα; [3]) [µM] | IC50 (human DGKζ; [6]) [µM] | IC50 (human DGKα; [7]) [µM] | further results
CC[C@H]1CN(C(C)c2ccc(CO)cc2)[C@H](CC)CN1c1nc(=O)n(C)c2ccc(C#N)nc12 (stereo partly drawn) [Example 270, 4-((2S,5R)-2,5-Diethyl-4-(1-(4-(hydroxymethyl)phenyl)ethyl)piperazin-1-yl)-1-methyl-2-oxo-1,2-dihydropyrido[3,2-d]pyrimidine-6-carbonitrile] | 0.008 |  |  | IC50 (human DGKζ; [2]): 2.32 µM; EC50 [1, 4]: 1.39 µM
CC[C@H]1CN(C(c2ccc(F)cc2)c2csc(C(F)(F)F)n2)[C@H](CC)CN1c1nc(=O)n(C)c2ccc(C#N)nc12 (stereo partly drawn) [Example 210, 4-((2S,5R)-2,5-diethyl-4((4-fluorophenyl)(2-(trifluoromethyl)thiazol-4-yl)methyl)piperazin-1-yl)-1-methyl-2-oxo-1,2-dihydropyrido[3,2-d]pyrimidine-6-carbonitrile] | 0.046 |  |  | IC50 (human DGKζ; [2]): 0.97 µM; EC50 [1, 5]: 0.031 µM
CC[C@H]1CN(C(C)c2ccc(CN3CCC(F)(F)CC3)cc2)[C@H](CC)CN1c1nc(=O)n(C)c2ccc(C#N)nc12 (stereo partly drawn) [Example 278, 4-((2S,5R)-4-(1-(4-((4,4-difluoropiperidin-1-yl)methyl)phenyl)ethyl)-2,5-diethylpiperazin-1-yl)-1-methyl-2-oxo-1,2-dihydropyrido[3,2-d]pyrimidine-6-carbonitrile] | 2.86 |  |  | EC50 [1, 5]: 1.15 µM
CCCC(c1ccc(C(F)(F)F)cc1)N1C[C@H](CC)N(c2nc(=O)n(C)c3ccc(C#N)nc23)C[C@H]1CC (stereo partly drawn) [Example 243, 4-((2S,5R)-2,5-Diethyl-4-(1-(4-(trifluoromethyl)phenyl)butyl)piperazin-1-yl)-1-methyl-2-oxo-1,2-dihydropyrido[3,2-d]pyrimidine-6-carbonitrile] | 0.006 |  |  | EC50 [1, 4]: 0.059 µM
CC[C@H]1CN(C(C)c2ccc(C(F)(F)F)cc2)[C@H](CC)CN1c1nc(=O)n(C)c2ccc(COC)nc12 (single isomer, unassigned) [Example 424] |  | 4.59 | 114 | 
CCOc1ccc2c(n1)c(N1C[C@@H](CC)N(C(CC)c3ccc(C(F)(F)F)cc3)C[C@@H]1CC)nc(=O)n2C (stereo partly drawn) [Example 438, 4-((2S,5R)-2,5-diethyl-4-(1-(4-(trifluoromethyl)phenyl)propyl)piperazin-1-yl)-6-ethoxy-1-methylpyrido[3,2-d]pyrimidin-2(1H)-one] |  | 250 | 175 | 
CCC(c1ccc(C(F)(F)F)cc1)N1C[C@H](CC)N(c2nc(=O)n(C)c3ccc(Cl)nc23)C[C@H]1CC (single isomer, unassigned) [Example 422] |  | 6.87 | 0.23 | 
CC[C@H]1CN(C(C)c2ccc(C3(C#N)CC3)cc2)[C@H](CC)CN1c1nc(=O)n(C)c2ccc(C#N)nc12 (stereo partly drawn) [Example 264, 4-((2S,5R)-4-(1-(4-(1-cyanocyclopropyl)phenyl)ethyl)-2,5-diethylpiperazin-1-yl)-1-methyl-2-oxo-1,2-dihydropyrido[3,2-d]pyrimidine-6-carbonitrile] | 0.75 |  |  | IC50 (human DGKζ; [2]): 1.17 µM
CC[C@@H]1CN(c2nc(=O)n(C)c3ccc(C#N)nc23)[C@@H](CC)CN1CC1CCC(F)(F)CC1 [Example 269, 4-((2S,5R)-4-((4,4-difluorocyclohexyl)methyl)-2,5-diethylpiperazin-1-yl)-1-methyl-2-oxo-1,2-dihydropyrido[3,2-d]pyrimidine-6-carbonitrile] | 0.58 |  |  | IC50 (human DGKζ; [2]): 0.26 µM
CC[C@H]1CN(C(C)c2ccc(C(F)(F)F)cc2)[C@H](CC)CN1c1nc(=O)n(C)c2ccc(OC)nc12 (single isomer, unassigned) [Example 427] |  | 4.45 | 0.46 | 
CC[C@H]1CN(C(c2ccc(F)cc2)c2cccc(C(F)F)n2)[C@H](CC)CN1c1nc(=O)n(C)c2ccc(C#N)nc12 (stereo partly drawn) [Example 257, 4-((2S,5R)-4((6-(difluoromethyl)pyridin-2-yl)(4-fluorophenyl)methyl)-2,5-diethylpiperazin-1-yl)-1-methyl-2-oxo-1,2-dihydropyrido[3,2-d]pyrimidine-6-carbonitrile] | 0.17 |  |  | IC50 (human DGKζ; [2]): 0.25 µM
CC[C@H]1CN(C(C)c2ccc(CN3CCN(C)C(=O)C3)cc2)[C@H](CC)CN1c1nc(=O)n(C)c2ccc(C#N)nc12 (stereo partly drawn) [Example 287, 4-((2S,5R)-2,5-diethyl-4-(1-(4-((4-methyl-3-oxopiperazin-1-yl)methyl)phenyl)ethyl)piperazin-1-yl)-1-methyl-2-oxo-1,2-dihydropyrido[3,2-d]pyrimidine-6-carbonitrile] | 0.21 |  |  | IC50 (human DGKζ; [2]): 0.5 µM
[2H]C([2H])([2H])n1c(=O)nc(N2C[C@@H](CC)N(C(C)c3ccc(C(F)(F)F)cc3)C[C@@H]2C)c2nc(C#N)ccc21 (single isomer, unassigned) [Example 420] |  | 0.76 | 0.09 | 
COC[C@H]1CN(C(C)c2ccc(C(F)(F)F)cc2)[C@H](C)CN1c1nc(=O)n(C)c2ccc(C#N)nc12 (single isomer, unassigned) [Example 410] |  | 2.37 | 0.22 | 
CCOc1ccc2c(n1)c(N1C[C@@H](CC)N(C(CC)c3ccc(C(F)(F)F)cc3)C[C@@H]1CC)nc(=O)n2C (stereo partly drawn) [Example 437, 4-((2S,5R)-2,5-diethyl-4-(1-(4-(trifluoromethyl)phenyl)propyl)piperazin-1-yl)-6-ethoxy-1-methylpyrido[3,2-d]pyrimidin-2(1H)-one] |  | 250 | 250 | 
CC[C@@H]1CN(c2nc(=O)n(C)c3ccc(C#N)nc23)[C@@H](C)CN1C(c1ccc(F)cc1)c1cccc(C(F)F)n1 (stereo partly drawn) [Example 316, 4-((2 S,5R)-4-((6-(difluoromethyl)pyridin-2-yl)(4-fluorophenyl)methyl)-5-ethyl-2-methylpiperazin-1-yl)-1-methyl-2-oxo-1,2-dihydropyrido[3,2-d]pyrimidine-6-carbonitrile] |  | 0.031 | 0.087 | 

Second part, led by results:

IC50 (human DGKα; [3]) [µM] | IC50 (human DGKζ; [6]) [µM] | IC50 (human DGKα; [7]) [µM] | SMILES | further results
 | 45.7 | 1.75 | CC(c1ccc(CN2C[C@@H]3C[C@H]2CO3)cc1)N1C[C@H](C)N(c2nc(=O)n(C)c3ccc(C#N)nc23)C[C@H]1C (stereo partly drawn) [Example 388, 4-((2S,5R)-4-(1-(4-(((1S,4S)-2-oxa-5-azabicyclo[2.2.1]heptan-5-yl)methyl)phenyl)ethyl)-2,5-dimethylpiperazin-1-yl)-1-methyl-2-oxo-1,2-dihydropyrido[3,2-d]pyrimidine-6-carbonitrile] | EC50 ([1]; human whole blood, anti-CD3 plus anti-CD28 stimulation, 24 hours, read-out: IFN-γ Whole Blood EC50): 20 µM
 | 28.8 | 14.2 | CCC(C1CC1)N1C[C@H](C)N(c2nc(=O)n(C)c3ccc(C#N)nc23)C[C@H]1C (stereo partly drawn) [Example 454, 4-((2S,5R)-4-(1-cyclopropylpropyl)-2,5-dimethylpiperazin-1-yl)-1-methyl-2-oxo-1,2-dihydropyrido[3,2-d]pyrimidine-6-carbonitrile] | 
 | 0.85 | 0.12 | CC[C@@H]1CN(c2nc(=O)n(C)c3ccc(C#N)nc23)[C@@H](C)CN1C(c1nnc(C2CC2)o1)C(C)C (single isomer, unassigned) [Example 367] | 
 | 0.006 | 0.013 | CCC(c1ccc(OC2CC2)cc1)N1C[C@H](C)N(c2nc(=O)n(C)c3ccc(C#N)nc23)C[C@H]1CC (stereo partly drawn) [Example 311, 4-((2S,5R)-4-(1-(4-cyclopropoxyphenyl)propyl)-5-ethyl-2-methylpiperazin-1-yl)-1-methyl-2-oxo-1,2-dihydropyrido[3,2-d]pyrimidine-6-carbonitrile] | 
 | 0.62 | 1.45 | CC[C@@H]1CN(c2nc(=O)n(C)c3ccc(C#N)nc23)[C@@H](C)CN1C(c1nc(C2CC2)no1)C(C)C (stereo partly drawn) [Example 366, 4-((2S,5R)-4-(1-(3-cyclopropyl-1,2,4-oxadiazol-5-yl)-2-methylpropyl)-5-ethyl-2-methylpiperazin-1-yl)-1-methyl-2-oxo-1,2-dihydropyrido[3,2-d]pyrimidine-6-carbonitrile] | 
 | 79.4 | 215 | CCC(C1CC1)N1C[C@H](C)N(c2nc(=O)n(C)c3ccc(C#N)nc23)C[C@H]1C (stereo partly drawn) [Example 453, 4-((2S,5R)-4-(1-cyclopropylpropyl)-2,5-dimethylpiperazin-1-yl)-1-methyl-2-oxo-1,2-dihydropyrido[3,2-d]pyrimidine-6-carbonitrile] | 
 | 0.72 | 0.074 | CCC(c1ccc(C2OCCO2)cc1)N1C[C@H](C)N(c2nc(=O)n(C)c3ccc(C#N)nc23)C[C@H]1CC (stereo partly drawn) [Example 332, 4-((2S,5R)-4-(1-(4-(1,3-dioxolan-2-yl)phenyl)propyl)-5-ethyl-2-methylpiperazin-1-yl)-1-methyl-2-oxo-1,2-dihydropyrido[3,2-d]pyrimidine-6-carbonitrile] | 
 | 0.064 | 0.09 | CCC(c1ccc(C(F)(F)F)cc1)N1C[C@H](C)N(c2nc(=O)n(C)c3ccc(C#N)nc23)C[C@H]1COC (single isomer, unassigned) [Example 398] | 
 | 6.47 | 7.74 | CCC(C1CC(F)(F)C1)N1C[C@H](C)N(c2nc(=O)n(C)c3ccc(C#N)nc23)C[C@H]1C (stereo partly drawn) [Example 458, 4-((2S,5R)-4-(1-(3,3-difluorocyclobutyl)propyl)-2,5-dimethylpiperazin-1-yl)-1-methyl-2-oxo-1,2-dihydropyrido[3,2-d]pyrimidine-6-carbonitrile] | 
